Data as given in ChEMBL document CHEMBL3885861, “Open TG-GATES”.

Species on record: Rattus norvegicus
Test: Open TG-GATES - Regimen: Single
Format: toxicity, organism-based, Sprague-Dawley
Parameters: regimen Single, gender Male, age 6 weeks
Details: in vivo, po, 0 mg/kg, route gavage, dose level Control; for APTT / Bas / Eos / Fbg / Hb / Ht / Lym / MCH / MCHC / MCV / Mono / Neu / PT / Plat / RBC / Ret / WBC: tissue Blood; for KIDNEY_L / KIDNEY_R / KIDNEY_TOTAL: tissue Kidney; for LIVER: tissue Liver; for A/G / ALP / ALT / AST / BUN / CRE / Ca / Cl / DBIL / GLC / IP / K / LDH / Na / PL / RALB / TBIL / TC / TG / TP / gamma-GTP: tissue Plasma

In the case of O=C(O)c1cc(/N=N/c2ccc(S(=O)(=O)Nc3ccccn3)cc2)ccc1O [SULFASALAZINE], the TERMINAL_BW (3 h) is reported as 209.5 g, the APTT (3 h) is reported as 18.5 s and the Bas (3 h) is reported as 0%. For the same compound, the Eos (3 h) was 0.8%, the Fbg (3 h) was 220.4 mg/dL and the Hb (3 h) was 12.8 g/dL. For the same compound, the Ht (3 h) was 38.5%, the Lym (3 h) was 80.4% and the MCH (3 h) was 21.2 pg. For the same compound, the MCHC (3 h) was 33.4%, the MCV (3 h) was 63.4 fL and the Mono (3 h) was 1.8%. It also gave a Neu (3 h) of 16.4%, a PT (3 h) of 12.8 s and a Plat (3 h) of 116.8 x10_4/uL. The RBC (3 h) was 607.8 x10_4/ul, the Ret (3 h) was 7.5% and the WBC (3 h) was 77.9 x10_2/uL. It also gave a KIDNEY_L (3 h) of 0.9 g, a KIDNEY_R (3 h) of 0.9 g and a KIDNEY_TOTAL (3 h) of 1.9 g. For the same compound, the LIVER (3 h) was 9.9 g, the A/G (3 h) was 1.5 and the ALP (3 h) was 1055 IU/L. For the same compound, the ALT (3 h) was 36.8 IU/L, the AST (3 h) was 60.2 IU/L and the BUN (3 h) was 12 mg/dL. For the same compound, the CRE (3 h) was 0.4 mg/dL, the Ca (3 h) was 10.6 mg/dL and the Cl (3 h) was 101.6 meq/L. It also gave a DBIL (3 h) of 0.074 mg/dL, a GLC (3 h) of 196 mg/dL and an IP (3 h) of 9.4 mg/dL. It also gave a K (3 h) of 3.9 meq/L, an LDH (3 h) of 182 IU/L and a Na (3 h) of 140.2 meq/L. The PL (3 h) was 140.6 mg/dL, the RALB (3 h) was 3.2 g/dL and the TBIL (3 h) was 0.1 mg/dL. For the same compound, the TC (3 h) was 78 mg/dL, the TG (3 h) was 73.8 mg/dL and the TP (3 h) was 5.5 g/dL. The gamma-GTP (3 h) was 1.4 IU/L, the TERMINAL_BW (6 h) was 206.9 g and the APTT (6 h) was 20.7 s. The Bas (6 h) was 0%, the Eos (6 h) was 1% and the Fbg (6 h) was 224 mg/dL. The Hb (6 h) was 13.2 g/dL, the Ht (6 h) was 38.3% and the Lym (6 h) was 75.8%. The MCH (6 h) was 21.8 pg, the MCHC (6 h) was 34.4% and the MCV (6 h) was 63.6 fL. It also gave a Mono (6 h) of 2.8%, a Neu (6 h) of 19.2% and a PT (6 h) of 12.9 s. For the same compound, the Plat (6 h) was 114.7 x10_4/uL, the RBC (6 h) was 602.8 x10_4/ul and the Ret (6 h) was 7.7%. The WBC (6 h) was 74.8 x10_2/uL, the KIDNEY_L (6 h) was 1 g and the KIDNEY_R (6 h) was 1 g. The KIDNEY_TOTAL (6 h) was 2 g, the LIVER (6 h) was 9.4 g and the A/G (6 h) was 1.6. It also gave an ALP (6 h) of 989.2 IU/L, an ALT (6 h) of 35.8 IU/L and an AST (6 h) of 65.8 IU/L. It also gave a BUN (6 h) of 10.4 mg/dL, a CRE (6 h) of 0.3 mg/dL and a Ca (6 h) of 10.6 mg/dL. It also gave a Cl (6 h) of 101.6 meq/L, a DBIL (6 h) of 0.07 mg/dL and a GLC (6 h) of 189.2 mg/dL. For the same compound, the IP (6 h) was 9.4 mg/dL, the K (6 h) was 4 meq/L and the LDH (6 h) was 182.6 IU/L. The Na (6 h) was 140.6 meq/L, the PL (6 h) was 141.2 mg/dL and the RALB (6 h) was 3.3 g/dL. The TBIL (6 h) was 0.1 mg/dL, the TC (6 h) was 73.2 mg/dL and the TG (6 h) was 58 mg/dL. It also gave a TP (6 h) of 5.4 g/dL, a gamma-GTP (6 h) of 1.2 IU/L and a TERMINAL_BW (9 h) of 205 g. The APTT (9 h) was 18.9 s, the Bas (9 h) was 0% and the Eos (9 h) was 1%. The Fbg (9 h) was 213.2 mg/dL, the Hb (9 h) was 13.1 g/dL and the Ht (9 h) was 38.3%. For the same compound, the Lym (9 h) was 72.6%, the MCH (9 h) was 21.5 pg and the MCHC (9 h) was 34.1%. The MCV (9 h) was 63 fL, the Mono (9 h) was 3% and the Neu (9 h) was 22.2%. The PT (9 h) was 12.8 s, the Plat (9 h) was 115.1 x10_4/uL and the RBC (9 h) was 608.8 x10_4/ul. For the same compound, the Ret (9 h) was 7%, the WBC (9 h) was 85.1 x10_2/uL and the KIDNEY_L (9 h) was 0.9 g. For the same compound, the KIDNEY_R (9 h) was 0.9 g, the KIDNEY_TOTAL (9 h) was 1.8 g and the LIVER (9 h) was 8.7 g. The A/G (9 h) was 1.6, the ALP (9 h) was 765.6 IU/L and the ALT (9 h) was 31.8 IU/L. For the same compound, the AST (9 h) was 63.2 IU/L, the BUN (9 h) was 11.4 mg/dL and the CRE (9 h) was 0.4 mg/dL. The Ca (9 h) was 10.5 mg/dL, the Cl (9 h) was 103 meq/L and the DBIL (9 h) was 0.078 mg/dL. For the same compound, the GLC (9 h) was 207.2 mg/dL, the IP (9 h) was 9.3 mg/dL and the K (9 h) was 3.9 meq/L. It also gave an LDH (9 h) of 194.2 IU/L, a Na (9 h) of 141.2 meq/L and a PL (9 h) of 142.2 mg/dL. For the same compound, the RALB (9 h) was 3.4 g/dL, the TBIL (9 h) was 0.1 mg/dL and the TC (9 h) was 73.2 mg/dL. For the same compound, the TG (9 h) was 76.4 mg/dL, the TP (9 h) was 5.5 g/dL and the gamma-GTP (9 h) was 2 IU/L. For the same compound, the TERMINAL_BW (24 h) was 224.5 g, the APTT (24 h) was 18.9 s and the Bas (24 h) was 0%. For the same compound, the Eos (24 h) was 1%, the Fbg (24 h) was 220.8 mg/dL and the Hb (24 h) was 13.3 g/dL. The Ht (24 h) was 39%, the Lym (24 h) was 73.8% and the MCH (24 h) was 21.9 pg. The MCHC (24 h) was 34%, the MCV (24 h) was 64.3 fL and the Mono (24 h) was 3.6%. For the same compound, the Neu (24 h) was 20.4%, the PT (24 h) was 12.1 s and the Plat (24 h) was 117.1 x10_4/uL. It also gave an RBC (24 h) of 607.2 x10_4/ul, a Ret (24 h) of 6.9% and a WBC (24 h) of 89.1 x10_2/uL. It also gave a KIDNEY_L (24 h) of 1 g, a KIDNEY_R (24 h) of 1 g and a KIDNEY_TOTAL (24 h) of 2 g. It also gave an LIVER (24 h) of 10.8 g, an A/G (24 h) of 1.5 and an ALP (24 h) of 961.8 IU/L. For the same compound, the ALT (24 h) was 45 IU/L, the AST (24 h) was 75.8 IU/L and the BUN (24 h) was 16.6 mg/dL. It also gave a CRE (24 h) of 0.4 mg/dL, a Ca (24 h) of 10.7 mg/dL and a Cl (24 h) of 101.6 meq/L. It also gave a DBIL (24 h) of 0.1 mg/dL, a GLC (24 h) of 193.8 mg/dL and an IP (24 h) of 8.1 mg/dL. It also gave a K (24 h) of 4.1 meq/L, an LDH (24 h) of 214.4 IU/L and a Na (24 h) of 140 meq/L. For the same compound, the PL (24 h) was 181.4 mg/dL, the RALB (24 h) was 3.4 g/dL and the TBIL (24 h) was 0.2 mg/dL. For the same compound, the TC (24 h) was 89.4 mg/dL, the TG (24 h) was 133 mg/dL and the TP (24 h) was 5.6 g/dL. It also gave a gamma-GTP (24 h) of 1.2 IU/L.
